{"source": "paper PMC317294", "about": "(BMC Pharmacology, 2003)", "key": {"[1]": {"biological_target": "T1, human mu opioid receptor (hMOR) (Homo sapiens, UniProt P35372)", "T1 sequence (P35372 whole entry)": "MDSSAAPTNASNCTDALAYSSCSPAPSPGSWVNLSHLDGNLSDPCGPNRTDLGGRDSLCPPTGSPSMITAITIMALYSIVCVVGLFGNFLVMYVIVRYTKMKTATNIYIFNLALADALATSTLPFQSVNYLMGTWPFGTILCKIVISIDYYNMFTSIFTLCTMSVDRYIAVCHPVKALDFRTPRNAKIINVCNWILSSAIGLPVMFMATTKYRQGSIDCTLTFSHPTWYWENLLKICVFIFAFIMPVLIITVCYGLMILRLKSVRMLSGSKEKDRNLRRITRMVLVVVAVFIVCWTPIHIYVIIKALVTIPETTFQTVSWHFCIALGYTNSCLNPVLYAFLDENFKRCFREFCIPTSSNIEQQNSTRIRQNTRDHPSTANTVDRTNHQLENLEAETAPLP", "test": "biochemical", "settings": "read-out: maximal efficacy as percentage of stimulation above basal levels"}, "Ala^348,353 hMOR [2]": {"biological_target": "T2, Ala^348,353 hMOR (Homo sapiens, UniProt P35372, C348A/C353A)", "T2 sequence (P35372 whole entry C348A/C353A)": "as the sequence (P35372 whole entry) above, with C348A, C353A counted along it", "test": "biochemical", "settings": "read-out: maximal efficacy as percentage of stimulation above basal levels"}, "Ala^348,353 hMOR [3]": {"biological_target": "T2, Ala^348,353 hMOR", "assay_type": "cell-based"}, "[4]": {"biological_target": "T1, human mu opioid receptor (hMOR)", "assay_type": "cell-based"}, "Ala^348,353 hMOR [5]": {"biological_target": "T2, Ala^348,353 hMOR", "assay_type": "binding"}}}
{"compound": "C[C@@H](NC(=O)[C@@H](N)Cc1ccc(O)cc1)C(=O)NCC(=O)N(C)[C@@H](Cc1ccccc1)C(=O)NCCO", "note": "[DAMGO, [D-Ala^2, N-Me-Phe^4, Gly^5-ol]-enkephalin]", "values": [{"measurement": "Emax", "setting": "[1]", "value": "366 ± 23", "unit": "%"}, {"measurement": "Emax", "setting": "Ala^348,353 hMOR [2]", "value": "164 ± 6", "unit": "%"}]}
{"compound": "COc1cccc2c1[C@]13CCN(CC4CC4)[C@H](C2)[C@]1(OC)CCC(=O)C3", "note": "[Cyprodime]", "values": [{"measurement": "Ala^348,353 hMOR expression level after ligand treatment", "setting": "Ala^348,353 hMOR [3]", "value": "245 ± 20", "unit": "%"}, {"measurement": "hMOR expression level after ligand treatment", "setting": "[4]", "value": "103 ± 9", "unit": "%"}]}
{"compound": "C[C@@H](NC(=O)[C@@H](N)Cc1ccc(O)cc1)C(=O)N[C@@H](Cc1ccccc1)C(=O)NCC(=O)N[C@@H](Cc1ccc(O)cc1)C(=O)N1CCC[C@H]1C(=O)N[C@@H](CO)C(N)=O", "note": "[Dermorphin]", "values": [{"measurement": "increase in binding affinity for Ala^348,353 hMOR compared to hMOR", "setting": "Ala^348,353 hMOR [5]", "value": "approximately 20 fold"}]}
